This is an account of results in patent US20220127607A1, “METHODS AND MATERIALS FOR ACTIVATING AN INTERNAL RIBOSOME ENTRY SITE IN EXON 5 OF THE DMD GENE” (RESEARCH INSTITUTE AT NATIONWIDE CHILDREN'S HOSPITAL, priority 2014, published 2022).

“Also recorded” adds a separate entry of the source.

In data set [1] the test system is dystrophin IRES. Conditions: C2C12 cells, pRDEF exon 5-6 IRES construct, increasing concentrations. The protocol: (§1) FIGS. 5A-5F. […] (FIG. 5A) Dual luciferase assay performed on lysates from C2C12 cells transfected with the pRDEF vector carrying the exon 5-6 IRES construct. […] Error bars representate s.d. […] The image intensity for the wild-type lane was lowered to allow identification of bands. MHC=myosin heavy chain (loading control). […] Immunoblot was performed on each muscle in duplicate, and the signals for both dystrophin and α-actinin from the resulting 5 lanes were quantified using ImageJ. […] The signals for both utrophin and α-actinin from the resulting 5 lanes were quantified using ImageJ.
(§2) Furthermore, treatment with the glucocorticoids prednisone and deflazacort are standard treatment for DMD. […] Because utrophin translation may be regulated by corticosteroids and overexpression can compensate for absent dystrophin, we assessed utrophin levels in the same injected muscles (FIG. 5E).

The subject of data set [2] is Dup2 mice. Kind of data set: Grip strength. Type of data set: in vivo, mouse. Conditions: 4 weeks, agent alone, untreated Dup2 2.22±0.26, BI6 3.36±0.37.
Protocol: (§3) Dup2 tibialis anterior muscles were treated by intramuscular injection of 5e11vg U7-ACCA alone or with methylprednisolone (PDN: 1 mg/kg/day intraperitoneal) and analyzed at 4 weeks post-injection. […] EBD-positive fibers were quantified as a percent out of a total of 5,000 fibers counted per animal.
(FIG. 17C) Immunostaining of dystrophin on the same samples confirms dystrophin expression and its proper localization at the sarcolemma.
Data set [3] relates to dystrophin IRES. Kind of data set: Dual luciferase IRES assay in 293K cells. It is filed as cell-based.
From the text: FIGS. 12A-12B. […] Error bars represent s.d. […] N=4 animals per group. Error bars represent s.d.
as §2

The next data set has as its system utrophin. Kind of data set: Utrophin immunoblot in mouse muscle. Type of data set: in vivo. Conditions: Dup2 mice, PDN 1 mg/kg/day treated versus untreated, with or without U7-ACCA. The protocol:
as §1, §2

A further data set relates to dystrophin. Kind of data set: Dystrophin immunoblot in FibroMyoD cells. Type of data set: cell-based, human. Conditions: Dup2 FibroMyoD cells treated with U7-ACCA and 6.4 μM PDN. (Immunoblotting shows a protein as a band on a membrane.)
For data set [4], the system named is Dup2 mice. Put plainly: Loss of force following repetitive eccentric contractions. It is filed as in vivo, mouse. The settings on record: Dup2 TA, 4 weeks; agent alone.
In data set [5] the test system is Dup2 mice. Kind of data set: Central nucleation of myofibers in Dup2 mouse muscle. It is filed as in vivo. The settings on record: Dup2 TA, 4 weeks post-injection; agent alone (U7-ACCA 5e11vg IM; PDN 1 mg/kg/day ip); untreated Dup2 73.0±1.6.
Protocol: Expression of the IRES-driven isoform improves muscle membrane integrity and protects Dup2 muscle from contraction-induced damage. Dup2 tibialis anterior muscles were treated by intramuscular injection of 5e11vg U7-ACCA alone or with methylprednisolone (PDN: 1 mg/kg/day intraperitoneal) and analyzed at 4 weeks post-injection. […] EBD-positive fibers were quantified as a percent out of a total of 5,000 fibers counted per animal.
Data set [6] has as its system Dup2 mice. Kind of data set: Muscle force following tetanic contraction. It is filed as in vivo, mouse. The settings on record: Dup2 TA, 4 weeks; agent alone; untreated Dup2 170.9±14.3, BI6 274.0±12.1.
Protocol: as §3
Data set [7] concerns Dup2 mice. Put plainly: Evans blue dye (EBD) uptake / membrane protection assay. It is filed as in vivo, mouse. Conditions: Dup2 TA, 4 weeks post-injection; agent alone (U7-ACCA 5e11vg IM; PDN 1 mg/kg/day ip); untreated Dup2 14.7±6.6. The source says:
FIGS. 4A-4F. Intramuscular delivery of U7-ACCA results in significant N-truncated dystrophin expression in Dup2 mice, restoring localization of dystrophin-associated proteins. […] In wild type BI6 animals (FIG. 4B), the wild type transcript was 14.2% and Del2 transcript was 85.8%. (FIG. 4C) RNA-Seq read depth using a tibialis anterior muscle total RNA library from Dup2 U7-ACCA treated (upper) and Dup2 untreated (lower) mice, mapped to the 5′ region of the mouse Dmd gene (mm9, chrX:80,150,000-81,050,000). […] The protein induced in BI6 males injected with U7-ACCA is of the same size as that expressed in the Dup2 treated animals, confirming the size difference between this protein and the full-length isoform. (C-terminal antibody: PA1-21011,Thermo, Inc). […]
FIGS. 6A-6E. […] EBD-positive fibers were quantified as a percent out of a total of 5,000 fibers counted per animal.
We examined whether expression of the IRES-driven isoform improved muscle integrity and physiology in the Dup2 mouse. Similar to the case in mdx mice, dystrophic changes in Dup2 mice are quantifiable at 4 weeks of age as widespread muscle regeneration characterized by centralized nuclei (Vulin et al., manuscript in press). […] Quantification of the number of EBD positive fiber confirms that expression of the IRES driven isoform results in protection of muscle fibers in these mice (FIG. 6B). […]

A further data set has as its system DMD exon 2. Put plainly: RT-PCR of exon 2 skipping in patient-derived FibroMyoD cells. It is filed as cell-based, human. The source says:
FIGS. 3A-3D. Out-of-frame exon-skipping stimulates IRES activity in patient-derived cell lines. (FIG. 3A) Schematic representation of the human DMD exon 1-10 reading frame (blue) and 5′UTR (red). Blue numbers above each exon indicate cDNA positions; red numbers at the base of each exon indicate the amino acid position. The canonical actin binding domain 1 is represented, along with the predicted (via ScanProsite) CH and ABS domains. (FIG. 3B) Schematic representation of exon 2 (SEQ ID NO: 30). The selected targeted sequences are indicated below, affecting either splice acceptor (S.A.), splice donor (S.D.), or exon splice enhancer (E.S.E.) sequences (as predicted using Human Splicing Finder or ESE finder 3.0). (FIG. 3C) Two copies each of U7-C and U7-AL were cloned into the same AAV plasmid, as they were the most efficient in skipping exon 2 (see FIGS. 10A-10B). The resulting construct is referred to as U7-ACCA. RT-PCR results after infection of U7-ACCA vector (1E11 vg) or H2A antisense oligonucleotide (AON H2A) into either wt or duplicated exon 2 FibroMyoD (FM) cells. […]
In considering skipping of exons prior to the exon 5 IRES, only the removal of exon 2 will disrupt the reading frame and result in a premature stop codon (FIG. 3A). […]

With `C[C@H]1C[C@@H]2[C@H]([C@@H](O)C[C@@]3(C)[C@H]2CC[C@]3(O)C(=O)CO)[C@@]2(C)C=CC(=O)C=C12` [PDN, 6-methyl-prednisolone], the “IRES activity, concentration dependence” value with dystrophin IRES [1] is given as “increases IRES activity in a dose-dependent fashion”. Moreover, the “Normalized maximum hindlimb grip strength” value in the data set with Dup2 mice [2] is listed as “No significant difference”. Moreover, the “glucocorticoid activation of IRES” value in the data set with dystrophin IRES [3] is “not seen”. Moreover, in the data set on utrophin, the utrophin levels entry was “no statistically significant difference; also recorded: does not increase expression of utrophin”. Further, the dystrophin expression entry in the data set on dystrophin is “An increase in dystrophin expression”. Further, the “Protection from loss of force following repetitive eccentric contractions” value in the data set with Dup2 mice [4] is given as “No significant difference”. Besides, the “Central nucleation (% of myofibers)” value in the data set with Dup2 mice [5] is “No significant difference”. The “Normalized specific force following tetanic contraction” value in the data set on Dup2 mice [6] is “No significant difference”. Also, the “Evans blue dye (EBD)-positive fibers” value with Dup2 mice [7] was “No significant difference”.

Turning to “AON H2A: known antisense oligonucleotide CCAUUUUGUGAAUGUUUUCUUUUGAACAUC (SEQ ID NO: 13), positive control of exon 2 skipping (chemistry not given here)”, the “exon-skipping (RT-PCR, qualitative)” value with DMD exon 2 (control and duplicated exon 2 patient-derived FibroMyoD, 3 days post AAV infection or AON transfection) is “lower efficiency than U7-mediated skipping”. Besides, the “transcript lacking exon 2” value with DMD exon 2 (patient cell lines carrying mutation within exon 1 to 4, AAV 1×10E11 vector genomes) was “approximately 90%”.
